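Tested at 5 concentrations; 48 h exposure; 96-well plates; endpoints linearly interpolated, else capped at highest concentration. GI50 = concentration required for 50% inhibition of growth. At the TGI there is no net growth.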 Where a SMILES comes first, the peptide text is derived from it. The star is where a group is joined. Fmoc = O=C(OCC1c2ccccc2-c2ccccc21)*; OBn = c1ccc(CO*)cc1; tBu = CC(C)(C)*
Tests used:
Experiment in all cases: NCI-60 cell line screen, 48 h
786-0 renal = system: 786-0 renal
A498 renal = system: A498 renal
A549 NSCLC = system: A549 NSCLC
CCRF-CEM leukemia = system: CCRF-CEM leukemia
MDA-MB-231 breast = system: MDA-MB-231 breast
SK-MEL-5 melanoma = system: SK-MEL-5 melanoma
SN12C renal = system: SN12C renal
SW-620 colon = system: SW-620 colon
T-47D breast = system: T-47D breast
TK-10 renal = system: TK-10 renal

Structure (SMILES)	TGI (786-0 renal) [µM]	TGI (A498 renal) [µM]	TGI (A549 NSCLC) [µM]	TGI (CCRF-CEM leukemia) [µM]	TGI (MDA-MB-231 breast) [µM]	TGI (SK-MEL-5 melanoma) [µM]	TGI (SN12C renal) [µM]	TGI (SW-620 colon) [µM]	TGI (T-47D breast) [µM]	TGI (TK-10 renal) [µM]	GI50 (CCRF-CEM leukemia) [µM]
c1csc(-c2cc(-c3ccsc3)cs2)c1	> 100	> 100	> 100	> 100	> 100	> 100	> 100	> 100	> 100	> 100	–
O=C(Nc1nnc(-c2ccccc2)o1)C(SC(=S)N1CCCC1)c1ccccc1 (stereo unspecified)	> 100	81.6	> 100	71.4	> 100	38.2	> 100	> 100	> 100	> 100	–
C=C(CCC(=O)N(CCc1c[nH]c2ccccc12)C(=O)c1ccccc1CSCC)C(=O)OC	> 100	> 100	> 100	> 100	> 100	> 100	> 100	> 100	> 100	> 100	–
CC1=NN(c2cc(Cl)c(S(=O)(=O)O)cc2Cl)C2(C1)C(Cl)C(=O)N2c1nc2ccccc2s1 (stereo unspecified)	> 100	> 100	> 100	> 100	> 100	> 100	> 100	> 100	> 100	> 100	–
CCOC(=O)c1c(-c2ccc(Cl)cc2)c(C#N)c(=S)n(C2OC(COC(C)=O)C(OC(C)=O)C(OC(C)=O)C2OC(C)=O)c1C (stereo unspecified)	> 100	> 100	> 100	> 100	> 100	> 100	> 100	> 100	> 100	> 100	–
CCCCCCCCCCCCCCCCOC[C@H](COC(c1ccccc1)(c1ccccc1)c1ccccc1)O[P+](=S)OC (stereo partly specified)	> 100	> 100	> 100	> 100	> 100	> 100	> 100	> 100	> 100	> 100	–
FC(F)(Sc1ncccn1)c1nc2ccccc2o1	> 100	> 100	> 100	> 100	> 100	> 100	> 100	> 100	> 100	> 100	–
CN=C1C=C(/N=C2/C=C(N/C(=C\C#N)C(C)(C)O)OC2(C)C)OC1(C)C	> 100	88.9	> 100	> 74	> 100	> 85.7	> 100	> 100	> 100	> 100	–
CC1CC(C)(C)CC(OCCN2CCCCC2)(c2ccccc2)C1 (stereo unspecified)	22.6	26.1	24.6	24.9	24.9	22.9	25.4	32.5	29.5	26.7	–
CCOC(=O)/C=C(/OCC)[C@@H]1C(C(=O)c2ccc(Cl)cc2)[C@@H]1/C(=C\C(=O)OCC)OCC (stereo partly specified)	> 100	> 100	> 100	> 100	> 100	> 59.9	> 100	> 100	> 100	43.6	–
O=C(CN1CCCC1)Nc1ccc2c(c1)C1Oc3ccccc3CC1CO2 (stereo unspecified)	57.1	> 100	> 100	> 100	75.7	28.2	> 100	35.6	> 100	> 100	–
CC(OC(C)(C)C)C(NC(=O)OCC1c2ccccc2-c2ccccc21)C(=O)NC(Cc1ccccc1)C(=O)OCc1ccccc1 (stereo unspecified) (Fmoc-Thr(tBu)-Phe-OBn; configuration not given here)	> 100	> 100	> 100	> 100	> 100	> 100	> 100	> 100	> 100	> 100	–
CC(=O)CCN1CC2CN=NC2(C#N)C1 (stereo unspecified)	> 100	> 100	> 100	> 61	> 100	> 100	> 100	> 55.6	> 100	> 100	–
COC1=C(OC)C(=O)C(Cc2c(-c3ccccc3)nc3sc(Cl)cn23)=C(C)C1=O	41.8	47.2	52	53	24.6	29.2	30.4	50.6	> 100	45	–
COc1cc(/C=C2\C(=O)N(c3ccc(Cl)cc3)C(c3ccccc3)S2(=O)=O)cc(OC)c1OC (stereo unspecified)	> 100	> 100	> 100	> 70.7	> 100	> 22	> 100	> 100	> 100	> 100	–
O=[N+]([O-])C(/C=C(\Cl)[N+](=O)[O-])=C(Nc1ccccc1)Nc1ccccc1	14.3	31.7	31.8	5.36	26.9	26.2	29.4	11	37.3	25.4	–

Structure (SMILES)	TGI (786-0 renal) [µM]	TGI (A498 renal) [µM]	TGI (A549 NSCLC) [µM]	TGI (CCRF-CEM leukemia) [µM]	TGI (MDA-MB-231 breast) [µM]	TGI (SK-MEL-5 melanoma) [µM]	TGI (SN12C renal) [µM]	TGI (SW-620 colon) [µM]	TGI (T-47D breast) [µM]	TGI (TK-10 renal) [µM]	GI50 (CCRF-CEM leukemia) [µM]
CC(C)(C)[C@H]1NC(=O)CN1C(=O)OCc1ccccc1	> 100	54.9	> 100	> 100	> 100	> 100	> 100	> 100	> 100	> 100	–
COc1ccc(Nc2nc(N)c(C(=O)c3ccco3)s2)cc1	> 80.1	> 61.1	> 100	> 56.1	> 100	99.7	> 100	> 100	> 100	> 57.5	–
COc1ccc(/C=C2\N=C3N(Cc4ccccc4)C=C(N)N3C2=O)cc1	> 100	> 100	> 100	> 100	> 100	> 100	> 100	> 100	> 100	> 100	–
CCOC(=O)CSc1nc(-c2ccc(Cl)cc2)c(C#N)c(=O)[nH]1	> 100	> 100	> 100	89	> 100	> 100	> 100	> 100	> 100	> 100	–
CC[P+](c1ccccc1)(N(C)C)N(C)C	> 100	> 100	> 100	> 100	> 100	> 100	> 100	> 100	> 100	> 100	–
COc1cc2c(cc1OCCN1CCN(CCOc3cc4c(cc3OC)C(=O)N3CCC[C@H]3C=N4)CC1)N=C[C@@H]1CCCN1C2=O	> 76.8	> 72.5	> 100	> 100	54.5	48.9	> 100	> 100	> 100	87.8	4.49
Cc1cc(S(=O)(=O)NC2=NCc3c(F)cccc3N2)c(S)cc1Cl	> 100	> 100	> 100	> 100	> 100	> 100	> 100	> 100	> 100	> 100	–
CC1(c2ccc(Cl)cc2)c2ccccc2C(=O)N1CCCN1C(=O)c2ccccc2C1=O (stereo unspecified)	> 100	> 100	> 100	> 100	> 100	31	> 100	> 100	> 100	> 100	–
COc1ccccc1-c1cc(=O)c2cccnc2[nH]1	> 100	> 100	> 100	> 100	> 100	> 100	> 100	> 100	> 100	> 100	–
CC(=O)N1CN2C(=O)CCC2c2cc(C)ccc21 (stereo unspecified)	> 100	> 100	> 100	> 100	> 100	> 100	> 100	> 100	> 100	> 100	–
COc1cc2c(cc1OC)C(C1CC1)ON(C)CC2 (stereo unspecified)	> 100	> 100	> 100	> 100	> 100	> 100	> 100	> 100	> 100	> 100	–
CCOc1ccc(Nc2nc(N)nc(N)c2N=O)cc1	> 100	> 100	> 100	> 100	> 100	> 100	> 100	> 100	> 100	> 100	–
O=c1[nH]c2ccccc2c(=O)n1/N=C\c1ccccc1O	> 100	> 100	> 100	> 100	> 100	> 100	> 100	> 100	> 100	> 100	–
CC1=NN(C(=O)CC(=O)Nc2cccc(C)c2)C(=O)C1N=Nc1ccc(C(=O)O)cc1 (stereo unspecified)	> 100	> 100	> 100	> 100	> 100	> 100	> 100	> 100	> 100	> 100	–
O=C(CCCCCCCCC(=O)N1C(=O)CC(=O)N(c2ccc(Cl)cc2)C1=S)N1C(=O)CC(=O)N(c2ccc(Cl)cc2)C1=S	> 100	> 100	> 100	87.1	> 100	> 100	> 100	> 100	> 100	> 100	–
CC1OC23CCCCC2C(C#N)(C#N)C1(C#N)C(=N)O3 (stereo unspecified)	28.6	61.6	> 100	46.8	32.1	32.3	30.1	98.3	53.6	46.8	–
